According to the NIST ThermoML archive (doi:10.1016/j.jct.2013.01.008):
Numbers after ± are expanded uncertainties.

Experiments:
[1] = wn = mass fraction of the nth substance listed; conditions: 101 kPa, Liquid; for mass density: Pycnometric method; for viscosity: Capillary tube (Ostwald / Ubbelohde) method
[2] = 101 kPa, Liquid; for viscosity: Capillary tube (Ostwald / Ubbelohde) method
[3] = mn = molality of the nth substance listed, in mol/kg; conditions: 101 kPa, Liquid, m2 = 0; for viscosity: Capillary tube (Ostwald / Ubbelohde) method

In the case of `O=C[C@H](O)[C@@H](O)[C@H](O)[C@H](O)CO` [D-glucose] + O, the mass density ([1]; 293.15 K, w1 = 0.05) is reported as 1016.28 ± 0.33 kg/m3, the mass density ([1]; 293.15 K, w1 = 0.1) is reported as 1034.79 ± 0.34 kg/m3 and the mass density ([1]; 293.15 K, w1 = 0.15) is reported as 1053.29 ± 0.37 kg/m3. For the same molecule, the mass density ([1]; 293.15 K, w1 = 0.2) was 1072.41 ± 0.4 kg/m3, the viscosity ([1]; 298.15 K, w1 = 0.05) was 0.9767 ± 0.0091 mPa·s and the viscosity ([1]; 298.15 K, w1 = 0.1) was 1.12 ± 0.011 mPa·s. It also gave a viscosity ([1]; 298.15 K, w1 = 0.15) of 1.316 ± 0.013 mPa·s, a viscosity ([1]; 298.15 K, w1 = 0.2) of 1.67 ± 0.015 mPa·s and a mass density ([1]; 298.15 K, w1 = 0.05) of 1014.69 ± 0.34 kg/m3. It also gave a mass density ([1]; 298.15 K, w1 = 0.1) of 1033.15 ± 0.35 kg/m3, a mass density ([1]; 298.15 K, w1 = 0.15) of 1051.61 ± 0.36 kg/m3 and a mass density ([1]; 298.15 K, w1 = 0.2) of 1070.31 ± 0.41 kg/m3. For the same molecule, the viscosity ([1]; 303.15 K, w1 = 0.05) was 0.8605 ± 0.0081 mPa·s, the viscosity ([1]; 303.15 K, w1 = 0.1) was 0.9907 ± 0.0092 mPa·s and the viscosity ([1]; 303.15 K, w1 = 0.15) was 1.147 ± 0.011 mPa·s. It also gave a viscosity ([1]; 303.15 K, w1 = 0.2) of 1.491 ± 0.013 mPa·s, a mass density ([1]; 303.15 K, w1 = 0.05) of 1013.08 ± 0.35 kg/m3 and a mass density ([1]; 303.15 K, w1 = 0.1) of 1031.5 ± 0.36 kg/m3. It also gave a mass density ([1]; 303.15 K, w1 = 0.15) of 1049.92 ± 0.36 kg/m3, a mass density ([1]; 303.15 K, w1 = 0.2) of 1068.17 ± 0.42 kg/m3 and a viscosity ([1]; 308.15 K, w1 = 0.05) of 0.7697 ± 0.0072 mPa·s. It also gave a viscosity ([1]; 308.15 K, w1 = 0.1) of 0.8844 ± 0.0082 mPa·s, a viscosity ([1]; 308.15 K, w1 = 0.15) of 1.018 ± 0.0096 mPa·s and a viscosity ([1]; 308.15 K, w1 = 0.2) of 1.345 ± 0.012 mPa·s. The mass density ([1]; 308.15 K, w1 = 0.05) was 1011.47 ± 0.36 kg/m3, the mass density ([1]; 308.15 K, w1 = 0.1) was 1029.84 ± 0.37 kg/m3 and the mass density ([1]; 308.15 K, w1 = 0.15) was 1048.37 ± 0.37 kg/m3. The mass density ([1]; 308.15 K, w1 = 0.2) was 1065.97 ± 0.43 kg/m3, the viscosity ([1]; 313.15 K, w1 = 0.05) was 0.6945 ± 0.0065 mPa·s and the viscosity ([1]; 313.15 K, w1 = 0.1) was 0.7901 ± 0.0073 mPa·s. It also gave a viscosity ([1]; 313.15 K, w1 = 0.15) of 0.8925 ± 0.0084 mPa·s, a viscosity ([1]; 313.15 K, w1 = 0.2) of 1.21 ± 0.011 mPa·s and a mass density ([1]; 313.15 K, w1 = 0.05) of 1009.85 ± 0.37 kg/m3. For the same molecule, the mass density ([1]; 313.15 K, w1 = 0.1) was 1028.17 ± 0.38 kg/m3, the mass density ([1]; 313.15 K, w1 = 0.15) was 1046.62 ± 0.39 kg/m3 and the mass density ([1]; 313.15 K, w1 = 0.2) was 1063.76 ± 0.44 kg/m3. The viscosity ([1]; 318.15 K, w1 = 0.05) was 0.6334 ± 0.006 mPa·s, the viscosity ([1]; 318.15 K, w1 = 0.1) was 0.7223 ± 0.0066 mPa·s and the viscosity ([1]; 318.15 K, w1 = 0.15) was 0.8097 ± 0.0067 mPa·s. It also gave a viscosity ([1]; 318.15 K, w1 = 0.2) of 1.112 ± 0.0097 mPa·s, a mass density ([1]; 318.15 K, w1 = 0.1) of 1026.48 ± 0.38 kg/m3 and a mass density ([1]; 318.15 K, w1 = 0.15) of 1044.93 ± 0.45 kg/m3. It also gave a mass density ([1]; 318.15 K, w1 = 0.2) of 1061.52 ± 0.45 kg/m3.

Molecule `O` [water] has a viscosity ([2]; 298.15 K) of 0.8903 ± 0.0081 mPa·s, a viscosity ([2]; 303.15 K) of 0.7973 ± 0.0074 mPa·s and a viscosity ([2]; 308.15 K) of 0.719 ± 0.0067 mPa·s. For the same molecule, the mass density ([2]; 308.15 K, Pycnometric method) was 994.07 ± 0.36 kg/m3, the viscosity ([2]; 313.15 K) was 0.6526 ± 0.0061 mPa·s and the viscosity ([2]; 318.15 K) was 0.5972 ± 0.0056 mPa·s.

In the case of `O` [water] + C[C@@H](O)[C@H](N)C(=O)O, the viscosity ([3]; 298.15 K) is reported as 0.8903 ± 0.0081 mPa·s, the viscosity ([3]; 303.15 K) is reported as 0.7973 ± 0.0074 mPa·s and the viscosity ([3]; 308.15 K) is reported as 0.719 ± 0.0067 mPa·s. The mass density ([3]; 308.15 K, Pycnometric method) was 994.07 ± 0.36 kg/m3, the viscosity ([3]; 313.15 K) was 0.6526 ± 0.0061 mPa·s and the viscosity ([3]; 318.15 K) was 0.5972 ± 0.0056 mPa·s.
